According to patent US5179088A, “1-Carba(dethia)cephalosporin antibiotics” (Eli Lilly and Company, priority 1990, dated 1993):

Key:
Assay type in all cases: cell-based
Set-up in all cases: unit not given here
[1] = test system: Staphylococcus Aureus; test: in vitro antibacterial activity, agar dilution (Staphylococcus aureus)
Description: (§1) *minimum inhibitory concentrations were determined by the Agardilution

[2] = test system: Staphylococcus Epi; test: in vitro antibacterial activity, agar dilution (Staphylococcus epi)
Description: as §1

[3] = test system: Streptococcus A; test: in vitro antibacterial activity, agar dilution (Streptococcus A); details: strain C203
Description: as §1

[4] = test system: Streptococcus pn; test: in vitro antibacterial activity, agar dilution (Streptococcus pn); details: strain PARK
Description: as §1

[5] = test system: Streptococcus D; test: in vitro antibacterial activity, agar dilution (Streptococcus D)
Description: as §1

[6] = test system: H. Influ.; test: in vitro antibacterial activity, agar dilution (H. influ.)
Description: as §1

[7] = test system: E. coli; test: in vitro antibacterial activity, agar dilution (E. coli)
Description: as §1

[8] = test system: Klebsiella; test: in vitro antibacterial activity, agar dilution (Klebsiella)
Description: as §1

[9] = test system: Enterbacter Aerogenes; test: in vitro antibacterial activity, agar dilution (Enterobacter aerogenes)
Description: as §1

[10] = test system: Enterbacter Cloacea; test: in vitro antibacterial activity, agar dilution (Enterobacter cloacae)
Description: as §1

[11] = test system: Salmonella; test: in vitro antibacterial activity, agar dilution (Salmonella)
Description: as §1

[12] = test system: Pseudomonas; test: in vitro antibacterial activity, agar dilution (Pseudomonas)
Description: as §1

[13] = test system: Serratia; test: in vitro antibacterial activity, agar dilution (Serratia)
Description: as §1

[14] = test system: Shig. sonn; test: in vitro antibacterial activity, agar dilution (Shig. sonn); details: strain N9
Description: as §1

[15] = test system: Proteus morg; test: in vitro antibacterial activity, agar dilution (Proteus morg); details: strain PR15
Description: as §1

[16] = test system: Proteus incon; test: in vitro antibacterial activity, agar dilution (Proteus incon); details: strain PR33
Description: as §1

[17] = test system: Proteus rett; test: in vitro antibacterial activity, agar dilution (Proteus rett); details: strain C24
Description: as §1

[18] = test system: Citro; test: in vitro antibacterial activity, agar dilution (Citro); details: strain CF17
Description: as §1

[19] = test system: Acin; test: in vitro antibacterial activity, agar dilution (Acin); details: strain AC12
Description: as §1

Row | SMILES | minimum inhibitory concentration ([1]; strain S13E) | minimum inhibitory concentration ([1]; strain V41) | minimum inhibitory concentration ([1]; strain X1.1) | minimum inhibitory concentration ([1]; strain X400) | minimum inhibitory concentration ([2]; strain 222) | minimum inhibitory concentration ([2]; strain 270) | minimum inhibitory concentration [3] | minimum inhibitory concentration [4] | minimum inhibitory concentration ([5]; strain 2041) | minimum inhibitory concentration ([5]; strain X66) | minimum inhibitory concentration ([6]; res, strain 76) | minimum inhibitory concentration ([6]; sens, strain C.L.) | minimum inhibitory concentration ([7]; strain EC14) | minimum inhibitory concentration ([7]; strain N10) | minimum inhibitory concentration ([7]; strain TEM) | minimum inhibitory concentration ([8]; strain KAE) | minimum inhibitory concentration ([8]; strain X26) | minimum inhibitory concentration ([8]; strain X68) | minimum inhibitory concentration ([9]; strain C32) | minimum inhibitory concentration ([9]; strain EB17) | further results
1 | CO/N=C(\C(=O)N[C@@H]1C(=O)N2C(C(=O)O)=C(c3csc(C(c4ccccc4)c4ccccn4)n3)CC[C@H]12)c1csc(N)n1 (stereo partly drawn) [Example 38, 7β-[(2-aminothiazol-4-yl)-Z-methoximinoacetylamino]-1-carba-(1-dethia)-3-[2-(phenyl)(2-pyridyl)methyl)thiazol-4-yl-3-cephem-4-carboxylic acid] | > 128 | 32 | 4 | > 128 | 64 | 64 | < .008 | .015 | 8 | > 128 | .125 | 2 | 4 | 8 | 4 | 128 | .125 | 4 | 8 | 8 | minimum inhibitory concentration ([10]; strain 265A): > 128; minimum inhibitory concentration ([10]; strain EB5): 8; minimum inhibitory concentration ([11]; strain 1335): 8; minimum inhibitory concentration ([11]; strain X514): 4; minimum inhibitory concentration ([12]; strain PS18): > 128; minimum inhibitory concentration ([12]; strain PS72): > 128; minimum inhibitory concentration ([12]; strain X239): > 128; minimum inhibitory concentration ([12]; strain X528): > 128; minimum inhibitory concentration ([13]; strain SE3): 64; minimum inhibitory concentration ([13]; strain X99): 8; minimum inhibitory concentration [14]: 8; minimum inhibitory concentration [15]: 32; minimum inhibitory concentration [16]: 4; minimum inhibitory concentration [17]: 4; minimum inhibitory concentration [18]: 32; minimum inhibitory concentration [19]: 64
2 | CO/N=C(\C(=O)N[C@@H]1C(=O)N2C(C(=O)O)=C(c3csc(N)n3)CC[C@H]12)c1csc(N)n1 [Example 39] | > 128 | 8 | 4 | > 128 | 32 | 16 | < .008 | .015 | 8 | > 128 | .06 | .06 | .5 | 1 | .5 | 2 | .015 | .5 | 1 | .5 | minimum inhibitory concentration ([10]; strain 265A): > 128; minimum inhibitory concentration ([10]; strain EB5): 2; minimum inhibitory concentration ([11]; strain 1335): 2; minimum inhibitory concentration ([11]; strain X514): 1; minimum inhibitory concentration ([12]; strain PS18): > 128; minimum inhibitory concentration ([12]; strain PS72): > 128; minimum inhibitory concentration ([12]; strain X239): > 128; minimum inhibitory concentration ([12]; strain X528): > 128; minimum inhibitory concentration ([13]; strain SE3): 8; minimum inhibitory concentration ([13]; strain X99): 1; minimum inhibitory concentration [14]: .25; minimum inhibitory concentration [15]: 4; minimum inhibitory concentration [16]: .25; minimum inhibitory concentration [17]: .25; minimum inhibitory concentration [18]: 8; minimum inhibitory concentration [19]: 128
